Measurements: patent US20140256690A1, “CONTRACEPTIVE METHOD” (AGILE THERAPEUTICS, INC., priority 2013, published 2014)

Assay: Saturation solubilities of enhancers in PSAs
Assay type: physicochemical
[1] = in Duro-Tak 87-4098 (polyacrylate PSA)

Row | Structure (SMILES) | Saturation Solubilities [1] | Saturation Solubilities (in PIB PSA)
1 | C[S+](C)[O-] [DMSO, dimethyl sulfoxide] | 8 mg/g | 0.01 mg/g
2 | CCCCCCCCCCCCOC(=O)C(C)O (stereo not shown) [Lauryl Lactate, lauryl lactate] | 1000 mg/g | 785 mg/g
